Data published in patent publication US8784929B2 (priority 2007, dated 2014).

Legend:
[1] = biological target: T1, αHL-WT (Staphylococcus aureus, UniProt P09616); assay type: biochemical, staphylococcal; settings: pH 7
[2] = biological target: T1, αHL-WT; settings: cited from earlier work

T1 sequence (P09616 27-319 limits assumed): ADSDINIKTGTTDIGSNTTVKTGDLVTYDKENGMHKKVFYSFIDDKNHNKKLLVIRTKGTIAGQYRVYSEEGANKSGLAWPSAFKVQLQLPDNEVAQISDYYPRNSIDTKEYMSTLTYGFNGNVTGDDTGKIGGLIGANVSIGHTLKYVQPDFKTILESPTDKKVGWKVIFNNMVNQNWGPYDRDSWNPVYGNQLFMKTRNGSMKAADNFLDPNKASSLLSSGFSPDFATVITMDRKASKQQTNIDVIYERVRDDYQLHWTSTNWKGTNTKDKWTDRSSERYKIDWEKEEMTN

| Compound | current block on binding to αHL-WT [1] [%] | binding of β-cyclodextrin (in words) [2] |
| --- | --- | --- |
| COC[C@H]1O[C@@H]2O[C@H]3[C@H](OC)[C@@H](OC)[C@@H](O[C@H]4[C@H](OC)[C@@H](OC)[C@@H](O[C@H]5[C@H](OC)[C@@H](OC)[C@@H](O[C@H]6[C@H](OC)[C@@H](OC)[C@@H](O[C@H]7[C@H](OC)[C@@H](OC)[C@@H](O[C@H]8[C@H](OC)[C@@H](OC)[C@@H](O[C@H]1[C@H](OC)[C@H]2OC)O[C@@H]8COC)O[C@@H]7COC)O[C@@H]6COC)O[C@@H]5COC)O[C@@H]4COC)O[C@@H]3COC [hβCD, heptakis(2,3,6-tri-O-methyl)-β-cyclodextrin] | 95 |  |
| OC[C@H]1O[C@@H]2O[C@H]3[C@H](O)[C@@H](O)[C@@H](O[C@H]4[C@H](O)[C@@H](O)[C@@H](O[C@H]5[C@H](O)[C@@H](O)[C@@H](O[C@H]6[C@H](O)[C@@H](O)[C@@H](O[C@H]7[C@H](O)[C@@H](O)[C@@H](O[C@H]8[C@H](O)[C@@H](O)[C@@H](O[C@H]9[C@H](O)[C@@H](O)[C@@H](O[C@H]1[C@H](O)[C@H]2O)O[C@@H]9CO)O[C@@H]8CO)O[C@@H]7CO)O[C@@H]6CO)O[C@@H]5CO)O[C@@H]4CO)O[C@@H]3CO [γCD, γ-cyclodextrin] | 68 |  |
| OC[C@H]1O[C@@H]2O[C@H]3[C@H](O)[C@@H](O)[C@@H](O[C@H]4[C@H](O)[C@@H](O)[C@@H](O[C@H]5[C@H](O)[C@@H](O)[C@@H](O[C@H]6[C@H](O)[C@@H](O)[C@@H](O[C@H]7[C@H](O)[C@@H](O)[C@@H](O[C@H]8[C@H](O)[C@@H](O)[C@@H](O[C@H]1[C@H](O)[C@H]2O)O[C@@H]8CO)O[C@@H]7CO)O[C@@H]6CO)O[C@@H]5CO)O[C@@H]4CO)O[C@@H]3CO [β-cyclodextrin] |  | does not bind β-cyclodextrin strongly |
